These results are taken from US20240199557A1, “METHODS OF MAKING 1-BENZYL-4-PHENYL-1H-1,2,3-TRIAZOLE (BPT) AND BPT COATED STRUCTURES” (BOARD OF REGENTS, THE UNIVERSITY OF TEXAS SYSTEM, priority 2022, published 2024).

For series [1] the following is noted: A36 mild steel, 1M HCl, 298 K; 2.311 mm/year without inhibitor; cited from earlier work.
Series [2] is described as follows: XRD quantitative phase analysis of carbon steel discs after immersion. How it is done:
Four 3 mm height discs were cut from […] diameter steel rebar and one of their flat faces was polished using silicon carbide sandpaper with 250, 400 and, 600 grit. Subsequently each disc was immersed for 90 seconds in 10 mL of a freshly prepared Clarke solution [42], rinsed thoroughly with water, acetone and dried under a soft stream of dry N2. The crystalline structure of the samples was analyzed on their sheeny face employing X-Ray powder diffraction (XRD) using a Bruker D8 Advance Eco diffractometer applying Cu-Kα1,2 radiation. All samples were scanned at 40 kV and 25 mA in the […] of 31-66° and 2.0 s of step time per 2θ=0.019°. The crystalline planes used to perform the quantitative phase analysis (QPA) are for iron at 2θ=44.6°; [2,0,0] for lepidocrocite at 2θ=47.4° and, [2,2,0] for goethite at 2θ=33.6°.
Subsequently, each one of the discs was immersed in a solution with the composition as described on Table 5 and their surfaces were analyzed using XRD four weeks later. The diffraction patterns are shown in FIG. 9 and the quantitative phase analysis (QPA) data is given on Table 6.

Series [3] in a line: Linear polarization resistance (LPR): corrosion rate and inhibitor efficiency of steel rebar in synthetic pore solution. The text has this:
(§1) The steel cylinder working electrode (WE) were cross-sectioned and encased in epoxy. The surface was polished using 120 grit to 600 grit SiC paper, resulting in an exposed area of 0.499±0.01 cm^2. A Pt mesh was used as the counter electrode (CE). In terms of the reference electrodes (RE), a Saturated Calomel Electrode (SCE) was used for solutions with chloride and a Mercury Mercurous Sulfate Electrode (MSE) for solutions without chloride, satisfying the electrochemical cell requirements of ASTM standard G5 [38]. Though the experiments without chlorides were measured with MSE, the results were converted to SCE.
(§2) The WE, RE, and CE were placed in a test cell containing a synthetic pore solution (SPS). This SPS mimics the concrete pore environment and followed a formula consisting of 8.33 g/L NaOH+23.3 g/L KOH+2.0 g/L Ca(OH)2 (pH:13.6). These solutions were prepared using deionized water from a Milli-Q Water Purification System (resistivity: 18.2-18.7 MΩ·cm) and analytically pure grade reagents.
The testing procedure involved an initial pH measurement of the solution followed by purging the cell with CO2-free air (300 cc/min or more) for 5 minutes, prior to introducing the WE and throughout the experiment to reduce the effects of carbonation. More details can be found elsewhere. 2 M NaCl was chosen for the experiments since previously tested concentrations were not able to break the passive film generated in this highly alkaline environment. After chloride addition, the electrolyte was stirred for 4 h, while continuing to purge with CO2-free air. Then stirring stopped and purging was continued for 20 h to allow for passivation of the substrate. […]
The results of the LPR measurements for the different conditions tested are presented in FIG. 3 as CR, which was determined using an estimated Stem-Geary coefficient (B) of 26 mV (corroding bars) and Rp values calculated, all following ASTM G59 [72, 73]. […]
The efficiency (IE, %) of the BPT was calculated using the CR results when Cl^− was added to the control solution (CRSPS) and solutions containing BPT (CRBPT), using Equation (1). […]

Series [4] is described as follows: Stability/solubility of BPT in SPS and co-dissolvers. It is filed as physicochemical. The protocol:
Initial tests were run to find the stability/solubility of BPT in SPS. […] Several co-dissolvers were tested (ethyl alcohol 95%, isopropyl alcohol, acetone, dimethylsulfoxide, dimethylformamide, ethylenglycol, diethylenglycol, and 1-Methyl-2-pyrrolidinone), to aid in the solubility of the BPT in SPS. From these co-dissolvers, the organic compound N-methyl-2-pyrrolidone (NMP) performed the best and was selected at a concentration of 2.35 mg of BPT/mL of NMP (BPT saturated NMP solution).

Series [5] can be described thus: Anodic cyclic polarization (CYP): pitting potential.
Excerpt: as §1, §2
The testing procedure involved an initial pH measurement of the solution followed by purging the cell with CO2-free air (300 cc/min or more) for 5 minutes, prior to introducing the WE and throughout the experiment to reduce the effects of carbonation. More details can be found elsewhere. 2 M NaCl was chosen for the experiments since previously tested concentrations were not able to break the passive film generated in this highly alkaline environment. After chloride addition, the electrolyte was stirred for 4 h, while continuing to purge with CO2-free air. Then stirring stopped and purging was continued for 20 h to allow for passivation of the substrate. […] This procedure is similar to ASTM G180 [41]. The difference is related to the use of SPS instead of a cement slurry. Using a Gamry Reference 600+Potentiostat, different electrochemical tests were performed including open circuit potential (OCP), linear polarization resistance (LPR) and Anodic Cyclic Polarization (CYP).
LPR tests were performed from −0.030 V to +0.030 V from OCP, with a scan rate of 0.167 mV/s, in accordance with ASTM G59. CYP ran at a scan rate of 0.167 mV/s, beginning at 0.030 V more negative than the OCP with a maximum i of 1 mA/cm^2. Tests were performed to verify that pitting was occurring and not crevice corrosion occurred during CYP. After each experiment, the specimen was rinsed with D.I. water, degreased with ethanol, and dried. Surface images were taken using BX53 Olympus microscope to evaluate the corrosion morphology. […]
It is observed that for all conditions evaluated the passive film on the steel was formed, but the pitting potential (Ep) changed, being higher with the increase in BPT concentration (Table 3).

In the case of `c1ccc(Cn2cc(-c3ccccc3)nn2)cc1` [BPT, 1-Benzyl-4-Phenyl-1H-1,2,3-triazole], in series [1], the “corrosion kinetics (corrosion rate) with BPT” value is 0.429 mm/year. Moreover, in series [2] (SPS with NaCl in presence of BPT), the AFe/AGoe came to 0. The AFe/ALep in series [2] (disc 4: SPS + 2M NaCl + NMP + 3 mM BPT, four-week immersion) is listed as 26,908. In addition, the “efficiency (IE, %)” value in series [3] (3 mM BPT in SPS with 2 M NaCl, calculated from CR by Equation (1)) is given as 85.2%. Further, in series [3] (SPS with 2 M NaCl), the “concentrations at which BPT can inhibit the corrosion of carbon steel rebar” value was “higher than 2 mM”. For the same molecule, the “optimal concentration of BPT to inhibit corrosion on carbon steel rebar” value in series [3] (SPS with 2 M NaCl) turned out to be 3 mM. Also, the “stability in SPS” value in series [4] (alkaline solution (SPS, pH 13.6)) is listed as “stable in the alkaline solution”. Also, in series [4] (in N-methyl-2-pyrrolidone (NMP)), the “concentration of BPT saturated NMP solution” value is on record as 2.35 mg of BPT/mL of NMP. In addition, in series [4] (water), the solubility in water entry is recorded as “unable to dissolve in water”. Also, the “Ep (pitting potential)” value in series [5] (1 mM BPT in SPS, 2M NaCl) is listed as 149.25 mV vs. SCE; in series [5] (2 mM BPT in SPS, 2M NaCl) it was 404.04 mV vs. SCE; in series [5] (3 mM BPT in SPS, 2M NaCl), 302.06 mV vs. SCE; in series [5] (Adj. 3 mM BPT+NMP (hydroxide concentration adjusted to SPS), 2 M NaCl), 429.53±1.29 mV vs. SCE.
